Results: US10000469B2, “Heat shock protein 70 (hsp-70) receptor ligands” (Duke University, priority 2014, dated 2018)

Tests used:
Hsp70 = Hsp70 (Homo sapiens, UniProt P0DMV8); assay: Single turnover ATPase assay; assay type: biochemical; settings: presence or absence of co-chaperone Hlj1
Protocol: ATPase Assay: Single turnover assays were performed as previously described [Fewell et al. (2004). Small molecule modulators of endogenous and co-chaperone-stimulated Hsp70 ATPase activity. The Journal of biological chemistry 279, 51131-51140]. Briefly, Hsp70 was incubated with ^32P-ATP and cold ATP in single turnover buffer (1M KCl, 250 mM HEPES, 110 mM MgOAc) for 30 minutes on ice. ^32P-ATP-Hsp70 complex was purified from a Nick Column-Sephadex G-50 (Amersham, Piscataway, N.J.). Glycerol was added and the complexes were stored at −80° C. To determine ATP hydrolysis, a sample was thawed and added to single turnover buffer containing Hlj1 and compound added after 60 seconds. At the specified time points an aliquot of the reaction is removed, added to stop solution (2M LiCl, 4M formic acid, 36 mM ATP) and spotted on a TLC plate. The percentage of ATP hydrolyzed to ADP and P, was then calculated.

MCF7 = assay: Cell proliferation, MCF7; assay type: cell-based; settings: MCF7
Protocol: Cell Proliferation: Cell proliferation was determined using a Hoechst stain (Sigma, St. Louis, Mo.) to quantify DNA. 5,000 cells of the designated cell line were plated in 96 well plates and treated the next day, designated as time point 0, with the indicated concentration of the specified compound maintained for the duration of the assay. At the indicated time points the media was removed and plated frozen at −80° C. Double distilled H2O was then added and the plates were incubated at 37° C. for 1 hour. After 1 hour the plates were frozen at −80° C. After freezing the plates were thawed and Hoechst stain was diluted 1:1000 in THE buffer (10 mM Tris, 2M NaCl, 1 mM Na2EDTA). The final fluorescence was measured on the Victor X2 plate reader at 355/460 nm, and cell proliferation was determined with the formula: % Cell Proliferation=100×(Sample fluorescence−background fluorescence)/(Control fluorescence−background fluorescence).

MMTV-neu mice = assay: HS-72 in vivo efficacy study; design: species or system mouse; settings: for tumor volume vs. no treatment: at 21 days, p<0.05
Protocol: HS-72 in vivo Efficacy Studies: MMTV-neu mice, a HER2 overexpression breast cancer mouse model in which HER2 is under the transcriptional control of the mouse mammary tumor virus promoter/enhancer, were treated with the indicated doses and dosing schedule [Taneja et al., 2009]. All doses were delivered through IP injections using DMSO and their tumors were calipered once weekly. The mice were culled upon reaching tumor burden or if they expressed signs of toxicity as per MP1U standard protocol.

Hsp70i = Hsp70i (Homo sapiens, UniProt P0DMV8); assay: Thermofluor assay, purified Hsp70i; assay type: binding; design: Full length Hsp70 (black arrow) and tryptic fragments (blue arrows); His tag (cleaved yes); made in house; settings: for decrease of ATP bound Hsp70i Tm: in presence of ATP; for decrease of the Tm of Hsp70i: no nucleotide
Protocol: Protein Purification: Plasmids were provided for human HSPA1A, HSPA8, and HSPA1A C306D. Plasmids were transformed in Rosetta competent cells and single colonies were picked from streaked LB/ampicillin/chloramphenicol plates. Cultures were grown at 37° C. for 4-6 hours, were cooled to 15° C. and expression was induced overnight with 200 uM isopropyl 1-thio-β-D-galactopyranoside. Cells were pelleted and resuspended in Ni-lysis buffer (50 mM Na2HPO4, 300 mM NaCl, 10 mM Imidazole, 0.05% Tween-20) supplemented with Complete Mini protease inhibitor tablets (Roche, Mannheim, Germany) and […], and then sonicated. The cells were again pelleted and the supernatant was incubated with complete His-Tag purification resin (Roche, Mannheim, Germany) for 5 hours at 4° C. The resin was washed with Ni-wash buffer (50 mM Na2HPO4, 300 mM NaCl, 20 mM Imidazole, 0.05% Tween-20) and eluted with Ni-elution buffer (50 mM Na2HPO4, 300 mM NaCl, 250 mM Imidazole, 0.05% Tween-20). The elution was then incubated with tobacco etch virus protease overnight at 4° C. The following day the elution was incubated with the γ-phosphate ATP sepharose resin for 30 minutes at 4° C. Next the resin was washed with ATP-wash buffer (50 mMTris-HCl, 60 mM MgCl2, 60 mM KCl, 10 mM Citrate) supplemented with 1 mM DTT and then ATP-wash buffer supplemented with 2 mM ATP was added to the resin to elute the protein. The final elutions were concentrated in Amicon Ultra-15 Centrifugal Filter Units (EMD Millipore, Billerica, Mass.) and buffer exchanged into 25 mM HEPES, 5 mM MgCl2, 10 mM KCl (pH 7.5) and stored at −80° C. until use.
Thermofluor Assay: SYPRO orange (Molecular Probes, Eugene, Oreg.) was diluted 1:1000 in 25 mM HEPES, 5 mM MgCl2, 10 mM KCl (pH 7.5) and purified Hsp70i, Hsc70, Hsp70i C306, or Hsp90, was then added to a final dilution of 0.04 mg/ml. Where indicated 0.001% or 0.01% Triton X-100 (Sigma) was also added. The indicated compound or DMSO was then added at the specified concentration and each sample was added as 5 replicates to a 384 well plate (BioRad, Hercules, Calif.). A melt curve protocol (25° C. to 90° C., increasing 0.5° C. and a plate reading every 30 seconds) was run on a CFX384 Touch™ Real-Time PCR Detection System (BioRad). To determine the midpoint of the protein unfolding transition or Tm, GraphPad Prisim4 (La Jolla, Calif.) was used to normalize the melt curve and to calculate the first derivate of the melt curve, with the steepest point of the slope being the Tm.

Chain of Hsp70i (P0DMV8 whole entry, the tested form may be a part): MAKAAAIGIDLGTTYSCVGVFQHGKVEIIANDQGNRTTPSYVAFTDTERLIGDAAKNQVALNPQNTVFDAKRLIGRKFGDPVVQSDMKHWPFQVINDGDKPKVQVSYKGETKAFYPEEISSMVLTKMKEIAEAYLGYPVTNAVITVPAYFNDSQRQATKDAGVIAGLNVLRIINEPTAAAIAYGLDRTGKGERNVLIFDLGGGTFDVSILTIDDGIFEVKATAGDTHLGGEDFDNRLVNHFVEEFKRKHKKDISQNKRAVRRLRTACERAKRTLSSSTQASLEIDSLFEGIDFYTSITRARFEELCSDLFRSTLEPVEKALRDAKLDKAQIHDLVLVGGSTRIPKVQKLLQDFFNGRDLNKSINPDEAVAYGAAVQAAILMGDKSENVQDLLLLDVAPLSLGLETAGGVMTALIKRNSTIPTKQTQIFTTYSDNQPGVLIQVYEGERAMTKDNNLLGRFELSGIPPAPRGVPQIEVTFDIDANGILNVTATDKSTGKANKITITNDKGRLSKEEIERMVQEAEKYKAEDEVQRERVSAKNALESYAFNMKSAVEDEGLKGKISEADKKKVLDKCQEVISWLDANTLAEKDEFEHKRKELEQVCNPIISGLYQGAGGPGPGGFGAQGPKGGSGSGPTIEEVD
Chain of Hsp70 (P0DMV8 whole entry): as the sequence (P0DMV8 whole entry, the tested form may be a part) above

CCCn1c(NC(=O)[C@H]2CCCN(c3cnccn3)C2)nc2ccccc21 [HS-72, (S)—N-(1-propyl-1H-benzo[d]imidazol-2-yl)-1-(pyrazin-2-yl)piperidine-3-carboxamide]
effect on Hsp70 ATPase activity (Hsp70): does not reduce
cell proliferation (MCF7): inhibits proliferation
cell proliferation, combination with HS-10 (MCF7): additive effect
cell proliferation, combination with HS-10 (MCF7; listed as HS72): synergism
increase of median survival vs. no treatment (MMTV-neu mice; I.P. 20 mpk BiW): 6 days
tumor volume vs. no treatment (MMTV-neu mice; I.P. 20 mpk BiW, 20 mg/kg): significant reduction
tumor volume vs. no treatment (MMTV-neu mice; I.P. 20 mpk BiW, listed as HS72, 20 mg/kg): significant decrease
increase of median survival vs. no treatment (MMTV-neu mice; I.P. 20 mpk qd): 13 days
decrease of ATP bound Hsp70i Tm (Hsp70i; 10 uM): 0.5 °C
decrease of the Tm of Hsp70i (Hsp70i; 10 uM): 0.1 °C
decrease of ATP bound Hsp70i Tm (Hsp70i; 100 uM): 1 °C
decrease of the Tm of Hsp70i (Hsp70i; 100 uM): 0.5 °C
Tm of Hsp70 with compound alone vs. compound plus detergent (Hsp70i; 100 uM, 0.001% or 0.01% Triton): no difference
effect on Hsp70i Tm in combination with PES (Hsp70i; absence or presence of ATP): no synergistic or additive effect
effect on Hsp70i Tm in combination with VER (Hsp70i; absence or presence of ATP): no observed synergistic or additive effect
effect on Tm of Hsp70i (Hsp70i; compound alone): decreased in a dose dependent manner
effect on Tm of ADP Hsp70i (Hsp70i; in presence of ADP): does not change
